These results are taken from ChEMBL document CHEMBL1201862, “PubChem BioAssay data set” (2004).

Assay [1] is described as follows: M. tuberculosis H37Rv growth inhibitors, H37Rv strain (AID 1626). In kind it is functional.
Assay [2] concerns the target Peroxisome proliferator-activated receptor gamma/Nuclear receptor coactivator 1 (Homo sapiens, UniProt P37231). The format is functional.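 Also: agonist potency as compounds enhance coactivator SRC-1 recruitment to PPARgamma.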
Assay [3] addresses Peroxisome proliferator-activated receptor gamma/Nuclear receptor coactivator 3 (Homo sapiens, UniProt P37231). In kind it is functional.
In assay [4] the target is Peroxisome proliferator-activated receptor gamma/Nuclear receptor coactivator 2 (Homo sapiens, UniProt P37231). In kind it is functional.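 Also: agonist potency for raising coactivator recruitment to the receptor.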
Assay [5] is described as follows: A Cell Based Secondary Assay To Explore Cytotoxicity of Compounds that Sensitize Mycobacterium Tuberculosis to Beta-Lactam Antibiotics. The format is functional.
In a further assay the target is Melanocortin receptor 4 (Homo sapiens, UniProt P32245). In kind it is functional, cell-based.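 Also: Cell-based assay with luminescence read-out, confirmatory dose-response testing for agonist activity of biased ligands at MC4R; human U2OS cells with tagged receptor and beta-arrestin; potency of agonists that increase receptor coupling to beta-arrestin.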
Assay [6] can be described thus: inhibitors of firefly luciferase expression or activity, dose response, H4 neuroglioma cells, luminescence (AID 1990). In kind it is functional, cell-based.
Assay [7] is described as follows: Luminescence Cell-Based Dose Response HTS to Identify Inhibitors of 5'UTR Stem-Loop Driven Prion Protein mRNA Translation in H4 Neuroglioblastoma Cells. [Related pubchem assays: 1827 (Project Summary), 1813 (Primary HTS)]. In kind it is functional.
For another assay, the target named is Estrogen receptor beta (Homo sapiens, UniProt Q92731).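 Also: recombinant ER-beta bound to coactivator SRC1 peptide in presence of estradiol agonist; inhibitors block coactivator peptide binding and lower the FRET signal.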
A short description of assay [8]: inhibitors of SNCA 5'UTR-driven reporter translation, confirmation, H4 neuroglioma cells, luminescence (AID 1988). The format is functional, cell-based.
A further assay concerns the target Cytochrome P450 2C9 (Homo sapiens, UniProt P11712).
The target of assay [9] is T1, Lysosomal acid glucosylceramidase (Homo sapiens, UniProt P04062).
T1 sequence (P04062 whole entry): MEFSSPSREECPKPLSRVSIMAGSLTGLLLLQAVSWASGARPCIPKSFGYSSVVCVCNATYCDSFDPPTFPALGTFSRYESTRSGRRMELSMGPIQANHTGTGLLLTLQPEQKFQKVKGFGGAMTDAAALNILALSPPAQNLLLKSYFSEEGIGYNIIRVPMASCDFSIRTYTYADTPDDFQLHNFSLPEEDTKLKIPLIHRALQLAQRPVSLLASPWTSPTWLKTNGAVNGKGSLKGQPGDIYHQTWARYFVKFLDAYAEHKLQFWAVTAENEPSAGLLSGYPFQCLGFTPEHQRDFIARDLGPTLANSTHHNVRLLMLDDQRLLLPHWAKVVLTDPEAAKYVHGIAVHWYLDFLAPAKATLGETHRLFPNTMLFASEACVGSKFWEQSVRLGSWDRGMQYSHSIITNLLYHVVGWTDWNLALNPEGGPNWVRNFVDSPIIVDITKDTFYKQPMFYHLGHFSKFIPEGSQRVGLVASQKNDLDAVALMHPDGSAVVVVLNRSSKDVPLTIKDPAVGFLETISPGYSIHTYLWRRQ
The assay is described as follows: Dose response cell-based high throughput screening assay to identify enhancers of beta-glucosidase activity. [Related pubchem assays: 784 ]. In kind it is functional.

A further assay addresses Cytochrome P450 2C19 (Homo sapiens, UniProt P33261). The assay is described as follows: Cytochrome panel assay with activity outcomes. Panel member name: p450-cyp2c19 Compounds with AC50 equal or less than 10 uM are considered active. In kind it is functional. To be noted: read-out: AC50.
The next assay concerns the target T2, Insulin-degrading enzyme (Homo sapiens, UniProt P14735).
T2 sequence (P14735 whole entry): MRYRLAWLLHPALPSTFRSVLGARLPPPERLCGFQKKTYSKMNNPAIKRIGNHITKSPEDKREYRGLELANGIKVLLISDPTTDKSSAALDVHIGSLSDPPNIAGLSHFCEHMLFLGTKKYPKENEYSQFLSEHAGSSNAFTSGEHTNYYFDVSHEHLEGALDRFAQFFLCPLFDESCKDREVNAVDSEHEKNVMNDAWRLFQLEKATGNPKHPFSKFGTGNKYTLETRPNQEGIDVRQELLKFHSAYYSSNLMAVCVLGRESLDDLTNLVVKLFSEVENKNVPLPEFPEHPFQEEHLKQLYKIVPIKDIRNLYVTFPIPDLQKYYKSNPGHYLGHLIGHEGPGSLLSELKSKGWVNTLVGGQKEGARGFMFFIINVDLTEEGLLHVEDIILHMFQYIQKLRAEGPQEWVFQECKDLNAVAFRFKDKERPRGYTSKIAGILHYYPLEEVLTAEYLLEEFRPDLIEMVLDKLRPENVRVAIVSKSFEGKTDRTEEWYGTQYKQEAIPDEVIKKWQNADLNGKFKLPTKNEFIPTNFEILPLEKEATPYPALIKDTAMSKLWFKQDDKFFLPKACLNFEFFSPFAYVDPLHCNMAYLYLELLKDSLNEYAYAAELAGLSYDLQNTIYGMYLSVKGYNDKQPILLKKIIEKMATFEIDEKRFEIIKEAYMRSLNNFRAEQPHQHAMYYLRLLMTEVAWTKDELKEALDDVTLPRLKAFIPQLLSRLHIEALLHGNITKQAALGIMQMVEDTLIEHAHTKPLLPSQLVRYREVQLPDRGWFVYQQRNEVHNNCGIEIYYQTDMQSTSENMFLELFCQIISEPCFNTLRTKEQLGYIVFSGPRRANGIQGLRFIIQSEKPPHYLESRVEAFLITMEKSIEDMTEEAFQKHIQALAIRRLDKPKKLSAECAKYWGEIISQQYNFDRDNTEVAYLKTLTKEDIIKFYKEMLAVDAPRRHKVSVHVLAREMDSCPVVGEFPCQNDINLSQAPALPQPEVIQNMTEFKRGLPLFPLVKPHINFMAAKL
The assay can be described thus: Dose Response: Fluorescence polarization-based cell-based high throughput dose response assay for inhibitors of insulin-degrading enzyme (IDE). [Related pubchem assays: 434962 (Primary screen (IDE inhibitors in singlicate)), 449730 (Counterscreen (Cytotoxicity in triplicate)), 435028 (Confirmation (IDE inhibitors in triplicate)), 434984 (Summary …. In kind it is functional. For orientation: Fluorescence polarisation rises when a labelled molecule tumbles more slowly, as on binding a larger partner.

A short description of assay [10]: Counterscreen for IDE inhibitors: Luminescence-based cell-based high throughput dose response assay to identify compounds that are cytotoxic to HEK cells. [Related pubchem assays: 434962 (Primary screen (IDE inhibitors in singlicate)), 449730 (Counterscreen (Cytotoxicity in triplicate)), 435028 (Confirmation (IDE inhibitors in triplicate)) …. In kind it is functional. The conditions noted are these: HEK293. On the technique in general: Counterscreens check selectivity or assay interference.

Assay [11] can be described thus: cytotoxicity in KRAS-transformed pancreatic duct cells, primary screen, cell-based, fluorescence, HTS (AID 431). In kind it is functional. To be noted: Homo sapiens.
Assay [12] in a line: cytotoxicity in HPDE-C7 cells, cell-based, fluorescence, HTS (AID 430). In kind it is functional. To be noted: Homo sapiens.
A short description of assay [13]: cytotoxicity toward NIH3T3 fibroblasts, dose response, counter-screen, cell-based, ATP luminescence, mouse fibroblasts (AID 2010).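 Also: cells exposed to compound for about 90 hours before reading.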 In kind it is functional.
The nature of assay [14]: inhibitors of intracellular T. cruzi replication, confirmation, NIH3T3 host cells, beta-gal luminescence (AID 2044).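 Also: intracellular parasites grown in NIH/3T3 mouse fibroblasts as host cells; luminescent beta-galactosidase reporter signal from transgenic T. cruzi replicating inside host cells; inhibitors lower the luminescence signal.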 In kind it is functional, cell-based.
For a further assay, the system named is Streptococcus. The assay can be described thus: Group A Streptococcus viability loss, dose response, counter-screen for streptokinase expression inhibitor project, luminescence, BacTiterGlo (AID 1915).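 Also: potency for reduction of bacterial viability or growth.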 The format is functional, organism-based.
Assay [15] relates to Streptococcus sp. 'group A'. The assay is described as follows: growth inhibition of control SK(-) GAS strain, dose response, counter-screen for streptokinase expression inhibitor project, luminescence, kanamycin, BacTiterGlo, confirmation (AID 1900). The format is functional, organism-based.
The target of another assay is T3, Streptokinase A (Streptococcus pyogenes serotype M1, UniProt P10520).
T3 sequence (P10520 whole entry): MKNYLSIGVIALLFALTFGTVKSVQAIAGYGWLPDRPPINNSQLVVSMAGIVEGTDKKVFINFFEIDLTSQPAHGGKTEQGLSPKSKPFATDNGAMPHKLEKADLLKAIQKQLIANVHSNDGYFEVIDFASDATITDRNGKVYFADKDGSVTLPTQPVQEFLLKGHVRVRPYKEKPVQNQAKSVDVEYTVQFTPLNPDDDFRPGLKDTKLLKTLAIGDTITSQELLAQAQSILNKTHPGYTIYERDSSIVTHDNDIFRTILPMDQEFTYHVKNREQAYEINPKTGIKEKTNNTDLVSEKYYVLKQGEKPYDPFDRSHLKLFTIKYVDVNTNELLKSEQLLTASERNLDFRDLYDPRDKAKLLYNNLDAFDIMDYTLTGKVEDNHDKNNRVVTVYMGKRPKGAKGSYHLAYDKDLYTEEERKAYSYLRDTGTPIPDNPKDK
The assay is described as follows: S. pyogenes streptokinase expression inhibitors, potency, dose response, plasminogen activation absorbance, OD405 (AID 1914).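 Also: secreted streptokinase activity via plasminogen activation per viability signal from cell pellet.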 In kind it is functional, Streptococcus pyogenes M1 GAS.

Assay [16] deals with Heat shock protein HSP 90-alpha (Homo sapiens, UniProt P07900). In kind it is functional, organism-based.
Assay [17] in a line: cells. The format is functional, cell-based.
Assay [18] in a line: cells. In kind it is functional, cell-based. The source holds these as a separate data set.
In assay [19] the target is Protein-tyrosine kinase 2-beta (Homo sapiens, UniProt Q14289).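 Also: potency of inhibitors of PYK2 kinase phosphorylation of poly-GT substrate.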
Sequence of Protein-tyrosine kinase 2-beta (Q14289 whole entry): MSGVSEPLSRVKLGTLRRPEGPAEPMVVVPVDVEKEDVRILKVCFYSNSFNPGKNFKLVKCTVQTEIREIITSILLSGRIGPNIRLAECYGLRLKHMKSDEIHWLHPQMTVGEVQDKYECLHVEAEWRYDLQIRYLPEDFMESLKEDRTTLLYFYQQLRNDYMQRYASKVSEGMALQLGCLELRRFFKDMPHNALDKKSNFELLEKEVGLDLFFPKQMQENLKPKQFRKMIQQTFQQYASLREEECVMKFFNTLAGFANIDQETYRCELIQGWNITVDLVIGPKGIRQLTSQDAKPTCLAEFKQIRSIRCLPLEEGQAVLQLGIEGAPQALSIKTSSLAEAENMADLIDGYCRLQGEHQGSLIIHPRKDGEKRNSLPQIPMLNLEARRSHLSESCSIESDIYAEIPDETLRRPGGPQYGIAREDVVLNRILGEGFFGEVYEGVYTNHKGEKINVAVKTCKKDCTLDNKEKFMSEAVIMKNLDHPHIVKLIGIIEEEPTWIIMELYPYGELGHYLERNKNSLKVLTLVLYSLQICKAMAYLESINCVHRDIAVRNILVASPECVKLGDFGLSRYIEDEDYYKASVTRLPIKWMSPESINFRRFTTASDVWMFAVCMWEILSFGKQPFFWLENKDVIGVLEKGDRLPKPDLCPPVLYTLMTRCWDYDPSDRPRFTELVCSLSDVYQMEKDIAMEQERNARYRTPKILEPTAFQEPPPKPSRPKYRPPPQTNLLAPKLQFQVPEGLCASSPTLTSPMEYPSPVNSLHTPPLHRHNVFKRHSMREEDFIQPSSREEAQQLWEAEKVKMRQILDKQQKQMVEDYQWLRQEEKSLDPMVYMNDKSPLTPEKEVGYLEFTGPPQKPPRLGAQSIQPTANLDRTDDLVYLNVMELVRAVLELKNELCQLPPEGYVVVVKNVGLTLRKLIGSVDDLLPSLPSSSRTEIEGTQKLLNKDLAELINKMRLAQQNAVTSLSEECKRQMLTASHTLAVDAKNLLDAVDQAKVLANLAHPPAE

Each structure is given as a SMILES string. Activity calls are given as the source filed them.

Sequence of Peroxisome proliferator-activated receptor gamma/Nuclear receptor coactivator 1 (P37231 whole entry): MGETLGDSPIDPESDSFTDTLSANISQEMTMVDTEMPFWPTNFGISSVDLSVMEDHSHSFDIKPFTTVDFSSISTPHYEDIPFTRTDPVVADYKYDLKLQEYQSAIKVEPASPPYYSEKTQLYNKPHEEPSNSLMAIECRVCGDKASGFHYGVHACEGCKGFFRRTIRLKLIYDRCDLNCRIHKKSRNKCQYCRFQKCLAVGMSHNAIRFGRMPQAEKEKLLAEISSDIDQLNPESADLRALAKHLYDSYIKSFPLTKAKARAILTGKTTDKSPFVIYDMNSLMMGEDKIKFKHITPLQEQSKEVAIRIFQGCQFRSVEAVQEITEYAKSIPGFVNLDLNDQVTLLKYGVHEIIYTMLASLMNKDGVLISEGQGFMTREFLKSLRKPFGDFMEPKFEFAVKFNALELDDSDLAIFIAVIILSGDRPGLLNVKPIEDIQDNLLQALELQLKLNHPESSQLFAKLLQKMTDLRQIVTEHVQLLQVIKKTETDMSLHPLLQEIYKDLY
Sequence of Peroxisome proliferator-activated receptor gamma/Nuclear receptor coactivator 1 (Q15788 whole entry, further chain): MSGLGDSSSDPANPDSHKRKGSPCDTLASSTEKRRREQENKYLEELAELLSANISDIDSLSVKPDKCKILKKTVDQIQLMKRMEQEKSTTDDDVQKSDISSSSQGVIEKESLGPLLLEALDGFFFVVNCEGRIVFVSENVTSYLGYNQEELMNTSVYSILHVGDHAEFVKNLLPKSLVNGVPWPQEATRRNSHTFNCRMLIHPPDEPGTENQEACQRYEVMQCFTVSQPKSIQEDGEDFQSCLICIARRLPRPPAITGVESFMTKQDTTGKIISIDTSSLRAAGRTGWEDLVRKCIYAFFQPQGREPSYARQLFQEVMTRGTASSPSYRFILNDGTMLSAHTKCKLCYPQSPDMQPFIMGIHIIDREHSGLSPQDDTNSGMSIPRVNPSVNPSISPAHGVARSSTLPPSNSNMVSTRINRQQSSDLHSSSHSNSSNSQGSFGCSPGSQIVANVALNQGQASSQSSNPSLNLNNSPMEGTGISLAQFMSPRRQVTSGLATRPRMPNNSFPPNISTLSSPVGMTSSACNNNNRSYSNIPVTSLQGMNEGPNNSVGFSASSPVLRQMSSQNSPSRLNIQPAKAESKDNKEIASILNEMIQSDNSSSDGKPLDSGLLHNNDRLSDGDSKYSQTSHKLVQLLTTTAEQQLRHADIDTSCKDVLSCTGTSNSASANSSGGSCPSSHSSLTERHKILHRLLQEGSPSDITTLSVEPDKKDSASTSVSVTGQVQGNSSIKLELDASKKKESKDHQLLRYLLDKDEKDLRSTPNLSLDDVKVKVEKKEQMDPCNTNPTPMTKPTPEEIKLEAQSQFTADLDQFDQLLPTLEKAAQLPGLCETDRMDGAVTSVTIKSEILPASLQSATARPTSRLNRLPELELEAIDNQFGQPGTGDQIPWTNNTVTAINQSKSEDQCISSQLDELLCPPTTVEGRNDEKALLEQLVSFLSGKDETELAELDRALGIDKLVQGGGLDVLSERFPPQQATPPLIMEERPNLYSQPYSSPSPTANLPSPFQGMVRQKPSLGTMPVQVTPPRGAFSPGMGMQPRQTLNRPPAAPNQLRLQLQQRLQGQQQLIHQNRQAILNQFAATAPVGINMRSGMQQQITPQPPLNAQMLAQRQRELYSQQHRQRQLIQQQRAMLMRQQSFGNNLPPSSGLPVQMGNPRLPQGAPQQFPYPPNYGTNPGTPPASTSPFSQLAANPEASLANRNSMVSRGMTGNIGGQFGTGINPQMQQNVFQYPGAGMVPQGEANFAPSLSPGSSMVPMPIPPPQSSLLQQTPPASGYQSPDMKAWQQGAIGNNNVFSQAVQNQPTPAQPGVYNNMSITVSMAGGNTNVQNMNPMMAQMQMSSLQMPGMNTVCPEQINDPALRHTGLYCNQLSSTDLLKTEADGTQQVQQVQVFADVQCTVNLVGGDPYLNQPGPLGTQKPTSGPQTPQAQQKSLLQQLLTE
Sequence of Peroxisome proliferator-activated receptor gamma/Nuclear receptor coactivator 3 (P37231 whole entry): as the sequence (P37231 whole entry) above
Sequence of Peroxisome proliferator-activated receptor gamma/Nuclear receptor coactivator 3 (Q9Y6Q9 whole entry, further chain): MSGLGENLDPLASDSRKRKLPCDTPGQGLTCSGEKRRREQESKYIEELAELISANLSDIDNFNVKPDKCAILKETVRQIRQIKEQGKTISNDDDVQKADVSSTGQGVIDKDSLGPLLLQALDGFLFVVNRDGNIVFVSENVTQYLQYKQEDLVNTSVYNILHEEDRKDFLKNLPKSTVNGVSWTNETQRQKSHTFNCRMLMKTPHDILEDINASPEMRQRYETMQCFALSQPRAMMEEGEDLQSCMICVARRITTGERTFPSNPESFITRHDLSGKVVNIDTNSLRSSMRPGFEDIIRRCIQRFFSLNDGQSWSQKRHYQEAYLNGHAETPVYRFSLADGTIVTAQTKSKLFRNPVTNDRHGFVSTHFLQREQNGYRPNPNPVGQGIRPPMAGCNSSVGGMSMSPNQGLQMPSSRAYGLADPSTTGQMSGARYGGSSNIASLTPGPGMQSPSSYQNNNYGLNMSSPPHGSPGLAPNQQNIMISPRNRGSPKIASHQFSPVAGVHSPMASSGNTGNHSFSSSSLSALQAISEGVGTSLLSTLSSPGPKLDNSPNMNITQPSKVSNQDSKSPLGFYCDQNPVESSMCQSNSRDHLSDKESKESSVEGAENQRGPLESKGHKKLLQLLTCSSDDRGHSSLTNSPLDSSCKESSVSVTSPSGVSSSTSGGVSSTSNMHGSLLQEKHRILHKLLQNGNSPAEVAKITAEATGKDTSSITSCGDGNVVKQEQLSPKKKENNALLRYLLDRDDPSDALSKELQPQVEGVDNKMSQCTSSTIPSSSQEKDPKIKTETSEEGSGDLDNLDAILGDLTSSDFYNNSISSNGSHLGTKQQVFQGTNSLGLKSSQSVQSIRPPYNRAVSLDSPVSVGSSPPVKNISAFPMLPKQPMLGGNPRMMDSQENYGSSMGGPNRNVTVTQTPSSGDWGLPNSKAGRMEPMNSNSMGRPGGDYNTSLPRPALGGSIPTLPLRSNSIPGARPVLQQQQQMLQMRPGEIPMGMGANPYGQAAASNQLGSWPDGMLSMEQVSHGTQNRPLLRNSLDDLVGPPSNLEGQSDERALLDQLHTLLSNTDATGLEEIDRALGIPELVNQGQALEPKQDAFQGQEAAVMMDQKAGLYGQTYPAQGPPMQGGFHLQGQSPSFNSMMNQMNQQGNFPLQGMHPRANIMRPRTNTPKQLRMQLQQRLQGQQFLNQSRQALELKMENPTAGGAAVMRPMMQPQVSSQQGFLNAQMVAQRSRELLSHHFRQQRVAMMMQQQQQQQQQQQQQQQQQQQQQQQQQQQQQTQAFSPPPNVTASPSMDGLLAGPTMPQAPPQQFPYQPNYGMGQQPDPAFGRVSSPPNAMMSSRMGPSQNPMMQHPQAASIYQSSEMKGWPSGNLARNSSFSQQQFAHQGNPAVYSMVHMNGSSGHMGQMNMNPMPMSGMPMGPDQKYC

Take `CCc1c(C#N)c(N)nc(SCC(=O)OCc2ccccc2)c1C#N`: in assay [1], the concentration for half-maximal inhibition (IC50) was > 100 µM (active).

With `CCCCSc1nnc([C@H](C)NC(=O)OC(C)(C)C)o1`, the EC50 in assay [2], in assay [3] and in [4] was > 79.4 µM (not active) throughout.

As to `CCn1c(SCC(=O)O)nnc1C1CCCCC1`, the EC50 in assay [2], in assay [3] and in assay [4] was > 79.4 µM (not active) each time.

Turning to `O=C(/C=C/c1ccc([N+](=O)[O-])cc1)c1cccs1`, in assay [5], the CC50 was 20.9 µM (active).

Consider `O=C(Nc1ccccc1-c1ccccc1)C12CC3CC(CC(C3)C1)C2`, for which the CC50 in assay [5] is > 40 µM (active).

On to `O=C(COc1ccc2c(c1)OCO2)Nc1ccc2c(c1)oc1ccccc12`, for which the EC50 at Melanocortin receptor 4 is > 89.2 µM (inactive). The IC50 in assay [1] is > 100 µM (active).

Consider `Cc1nn(C)c(C)c1CN(C)C(=O)c1cnn2c1NC(c1ccccc1)CC2C(F)(F)F` (centres undefined), for which the results for the half-maximal effective concentration (EC50) in [6], in assay [7] and in assay [8] were > 120 µM (not active), 17.9 µM (active) and 20 µM (active), respectively. The half-maximal inhibitory concentration (IC50) at Estrogen receptor beta is > 50 µM (not active).

Consider `Cn1c(/C(C#N)=C(\O)c2ccc(S(=O)(=O)N3CCCCC3)cc2)nc2ccccc21`, for which the AC50 was 316 nM (inconclusive) at Cytochrome P450 2C9 and 10 µM (inconclusive) on Cytochrome P450 2C19. In assay [9], the concentration for a half-maximal effect (EC50) was > 50 µM (not active).

As for `O=C(c1cc(COc2ccc(F)cc2Cl)on1)N1CCC(OCc2cccnc2)CC1`, the half-maximal inhibitory concentration (IC50) in assay [1] was > 100 µM (active).

In the case of `Cc1cc(C)cc(Nc2cnn(C34CC5CC(CC(CC(=O)O)(C5)C3)C4)c(=O)c2Cl)c1`, the IC50 against Insulin-degrading enzyme is 21.5 µM (not active); in assay [10], 0.0039 µM (active).

For the molecule `c1ccc(N2CCN(c3nc(NCc4ccco4)c4ccccc4n3)CC2)cc1`, the half-maximal effective concentration (EC50) in assay [11] was 10.8 µM (active); in assay [12] it was 11 µM (active); in assay [13], > 60 µM (not active); in assay [14], 2.3 µM (active).

Take `CC(C)(C)C1CCC2(CC1)C(C#N)=C(SCC(=O)Nc1ccccc1)NC(=O)C2C#N` (centres undefined): the concentration giving a half-maximal response (EC50) in [11] was 4.26 µM (active); in assay [12], 5.05 µM (active); in the assay with Streptococcus it was 25.2 µM (active); in assay [15], 4.96 µM (active); on Streptokinase A, 11.5 µM (active).

Regarding `CCCOC(=O)c1ccc(Oc2c[nH]nc2-c2ccc(OC)cc2O)cc1`, the EC50 is 6.14 µM (active) in assay [11], 8.49 µM (active) in assay [12], 10.3 µM (active) with Streptococcus and 8.73 µM (active) in assay [15]. The AC50 in [16] was 7.97 µM (active).

On to `Cc1cccnc1NC(=O)c1c(O)c2cccc3c2n(c1=O)CCC3`, for which, in assay [5], the CC50 was > 40 µM (active).

With `CCCCCCN1C=CC=C/C1=C/C=C(C#N)C#N`, the half-maximal inhibitory concentration (IC50) on Insulin-degrading enzyme was > 6.22 µM (active); in assay [10] it was 45.9 µM (not active). For the same molecule, the EC50 in the assay “cells [17]” and in the assay “cells [18]” was > 350 µM (not active) each time.

As for `CCN1C(=O)/C(=C/C=C2/CCCN2C)OC1=S`, the IC50 was 30.7 µM (not active) against Insulin-degrading enzyme and > 55.7 µM (not active) in assay [10].

On to `CCc1ccc2nc(SCC(=O)N(CC)CC)c(C#N)cc2c1`, for which the concentration for half-maximal inhibition (IC50) in assay [19] is listed as > 69.5 µM (not active).

With `COc1ccc(NC(=O)CN2CCN(S(=O)(=O)c3ccc(C(C)C)cc3)CC2)cc1OC`, the 50% effective concentration (EC50) in assay [9] is listed as > 10 µM (not active).

Consider `Cc1nonc1NC(=O)CSc1nc2cc(Cl)ccc2c2c1CCCC2`, for which the concentration for a half-maximal effect (EC50) in [9] was > 10 µM (not active).

With `NNc1nc2c(-c3ccc(F)cc3)nnn2c2ccccc12`, the EC50 in assay [2], in [3] and in assay [4] was > 79.4 µM (not active) each time.

`COc1ccc(-c2cc3ccccc3oc2=O)cc1NC(=O)c1ccc(Br)o1`: in [19], the IC50 was 1.57 µM (active).

Broadly, the IC50 is the point on the concentration scale where inhibition reaches its midpoint. Broadly, the EC50 is the concentration needed to bring the measured effect to its halfway point. Usually CC50 stands for the concentration that lowers cell viability or growth by half. A word on the AC50: it is the midpoint of the concentration-response curve, whichever way the signal moves.
